What was measured:
[1] = tested on: human primary muscle stem cells; assay: Assay for muscle stem cell commitment (Pax7/MyoD immunofluorescence high content screening); type: cell-based; conditions: Human Skeletal Muscle Myoblasts, donor 8 and donor 4, dose-dependent response, cultures grown 96 hours; for proportion of MyoD+ cells as percent of total cell number (myogenic commitment): MyoD+ = Pax7-/MyoD+ cells; for number of Pax7+ cells (expansion of human primary muscle stem cells): Pax7+ regardless of MyoD expression
Procedure: (§1) The inventors developed a high content screening to test in vitro compounds on human primary adult muscle cells. Human Skeletal Muscle Myoblasts (HSMM) were purchased from Lonza (https://bioscience.lonza.com). These cells were isolated from the upper arm or leg muscle tissue of normal donors and used after the second passage. Several donors were tested to ensure cell viability and purity before selecting the final donors, which are a person (Donor 8) and a person (Donor 4).
The primary screening assay was based on the high content detection of two important myogenic regulatory factors (Pax7 and MyoD) by immunofluorescence. Pax7 and MyoD are the major hallmarks of muscle stem cell stemness and commitment and can be used to monitor muscle stem cell progeny. In particular, Pax7 marks early amplification while MyoD is a later marker for myogenic commitment, and combinations of these markers define the different states of proliferation, differentiation and self-renewal.
Human primary myoblasts were seeded in 384 well plates at a density of 1′000 cells per well in skeletal muscle growth medium (SKM-M, AMSbio). For treatment, compounds were directly added to the myoblast cultures 16 hours after initial plating. All cultures were then grown for 96 hours. Cells were stained for Pax7 and MyoD expression using antibodies directed against Pax7 and MyoD and counterstained with Hoechst 33342 to visualize cell nuclei. […] Pax7+ cells are defined as cells that express Pax7 regardless of MyoD expression. Image acquisition was performed using the ImageXpress (Molecular Devices) platform. Custom module analysis based on Multi-Wavelength Cell Scoring of the MetaXpress software was used for quantification.

[2] = tested on: human primary muscle cells; assay: Assay for myogenesis (troponin-T myotube detection); type: cell-based; conditions: human primary myoblasts, donor 8 and donor 4; dose dependent response; compound treatment 96 hours after differentiation induction
Text: as §1, with “passage.” for “passage. Several donors were tested to ensure cell viability and purity before selecting the final donors, which are a person (Donor 8) and a person (Donor 4).”
This secondary assay focused on the later stage of myogenesis when the muscle cells fuse together and form multinucleated myotubes. This assay was based on the detection of the mature troponin-T protein that is expressed in myotubes. In particular, two measurements were made:
Fusion factor, which is the % of nuclei that are inside the multinucleated myotubes compare to total nuclei and give a readout for muscle cell differentiation.
Myotube area, which is measured based on the Troponin T staining and give a readout on the myotube size and muscle fiber growth.
After one day, the differentiation is induced by a medium change. For treatment, compounds were directly added to the myoblast cultures for 96 hours. Myotubes were stained for TroponinT expression using antibodies directed against TroponinT and counterstained with Hoechst 33342 to visualize cell nuclei. Image acquisition was performed using the ImageXpress (Molecular Devices) platform. Custom module analysis based on Multi-Wavelength Cell Scoring of the MetaXpress software was used for quantification.

| Compound | proportion of MyoD+ cells as percent of total cell number (myogenic commitment) [1] | number of Pax7+ cells (expansion of human primary muscle stem cells) [1] | myogenic differentiation (Fusion Factor, percent nuclei within troponinT-positive myotubes) [2] | myofiber growth (area covered by troponinT-positive myotubes) [2] |
| --- | --- | --- | --- | --- |
| CC(C)(C)n1nc(-c2ccc(Cl)cc2)c2c(N)ncnc21 [PP2, 3-(4-Chlorophenyl)-1-(1,1-dimethylethyl)-1H-pyrazolo[3,4-d]pyrimidin-4-amine] | increase | increase | enhances | – |
| CC(C)(C)n1nc(-c2cccc3ccccc23)c2c(N)ncnc21 [Napthyl-PP1, 1-(1,1-Dimethylethyl)-3-(1-naphthalenyl)-1H-pyrazolo[3,4-d]pyrimidin-4-amine] | increase | increase | enhances | enhances |
| Cc1ccc(-c2nn(C(C)(C)C)c3ncnc(N)c23)cc1 [PP1, 1-(1,1-Dimethylethyl)-3-(4-methylphenyl)-1H-pyrazolo[3,4-d]pyrimidin-4-amine] | increase | increase | enhances | – |
